From PubChem BioAssay AID272 (DTP/NCI, 2004)
Values joined by “and” are separate entries in the source; they are usually repeats but may differ in a detail not shown here. Identical values can stand only once. Results filed as inconclusive are left out.

Test system: Lewis lung carcinoma i.m., BDF1 mice, T/C %
Test: NCI In Vivo Anticancer Drug Screen. Data for tumor model Lewis Lung Carcinoma (intramuscular) in B6D2F1 (BDF1) mice
Outline: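 Tumour-bearing mice were dosed with compound, and either their survival or their tumour size was measured. Results were expressed relative to vehicle-treated controls as T/C.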

[1] = endpoint: mean tumor weight (est.), dose: 12.5 mg/kg/injection, schedule: Q01DX011 (ip), vehicle: saline with Tween-80, higher = larger tumour
[2] = endpoint: median survival time, dose: 12.5 mg/kg/injection, schedule: Q01DX011 (ip), vehicle: saline with Tween-80, higher = longer survival
[3] = endpoint: median survival time, dose: 6.25 mg/kg/injection, schedule: Q01DX011 (ip), vehicle: saline, higher = longer survival

COC1N(C2CC(O)C(CO)O2)C(=O)NC(=O)C1(F)Br (centres undefined)
T/C (endpoint: mean tumor weight (est.), dose: 5.0 mg/kg/injection, schedule: Q01DX011 (ip), vehicle: saline, higher = larger tumour): 87 % of control
T/C (endpoint: mean tumor weight (est.), dose: 10.0 mg/kg/injection, schedule: Q01DX011 (ip), vehicle: saline, higher = larger tumour): 29 % of control
T/C (endpoint: mean tumor weight (est.), dose: 20.0 mg/kg/injection, schedule: Q01DX011 (ip), vehicle: saline, higher = larger tumour): 7 % of control
T/C (endpoint: median survival time, dose: 5.0 mg/kg/injection, schedule: Q01DX011 (ip), vehicle: saline, higher = longer survival): 103 % of control

Cc1nc2ccccc2nc1CBr
T/C (endpoint: mean tumor weight (est.), dose: 3.2 mg/kg/injection, schedule: Q01DX011 (ip), vehicle: saline with Tween-80, higher = larger tumour): 64 % of control
T/C (endpoint: mean tumor weight (est.), dose: 6.3 mg/kg/injection, schedule: Q01DX011 (ip), vehicle: saline with Tween-80, higher = larger tumour): 80 % of control
T/C [1]: 56 % of control
T/C (endpoint: median survival time, dose: 3.2 mg/kg/injection, schedule: Q01DX011 (ip), vehicle: saline with Tween-80, higher = longer survival): 96 % of control
T/C (endpoint: median survival time, dose: 6.3 mg/kg/injection, schedule: Q01DX011 (ip), vehicle: saline with Tween-80, higher = longer survival): 101 % of control
T/C [2]: 88 % of control

CN(C)CCCNc1c2ccccc2nc2cccc([N+](=O)[O-])c12
T/C (endpoint: median survival time, dose: 0.1 mg/kg/injection, schedule: Q02DX011 (ip), vehicle: saline, higher = longer survival): 88 % of control
T/C (endpoint: median survival time, dose: 2.0 micrograms/kg/injection, schedule: Q01DX009 (ip), vehicle: saline, higher = longer survival): 120 % of control
T/C (endpoint: median survival time, dose: 4.0 micrograms/kg/injection, schedule: Q01DX009 (ip), vehicle: saline, higher = longer survival): 92 % of control and 104 % of control
T/C (endpoint: median survival time, dose: 16.0 micrograms/kg/injection, schedule: Q01DX009 (ip), vehicle: saline, higher = longer survival): 109 % of control
T/C (endpoint: median survival time, dose: 32.0 micrograms/kg/injection, schedule: Q01DX009 (ip), vehicle: saline, higher = longer survival): 100 % of control
T/C (endpoint: median survival time, dose: 64.0 micrograms/kg/injection, schedule: Q01DX009 (ip), vehicle: saline, higher = longer survival): 88 % of control and 107 % of control

CCCCNC(C)(C)COC(=O)/C=C/c1ccc(OCCCC)cc1
T/C [1]: 89 % of control
T/C (endpoint: mean tumor weight (est.), dose: 25.0 mg/kg/injection, schedule: Q01DX011 (ip), vehicle: saline with Tween-80, higher = larger tumour): 82 % of control
T/C (endpoint: mean tumor weight (est.), dose: 50.0 mg/kg/injection, schedule: Q01DX011 (ip), vehicle: saline with Tween-80, higher = larger tumour): 67 % of control
T/C (endpoint: mean tumor weight (est.), dose: 100.0 mg/kg/injection, schedule: Q01DX011 (ip), vehicle: saline with Tween-80, higher = larger tumour): 59 % of control
T/C [2]: 88 % of control
T/C (endpoint: median survival time, dose: 25.0 mg/kg/injection, schedule: Q01DX011 (ip), vehicle: saline with Tween-80, higher = longer survival): 110 % of control
T/C (endpoint: median survival time, dose: 50.0 mg/kg/injection, schedule: Q01DX011 (ip), vehicle: saline with Tween-80, higher = longer survival): 104 % of control
T/C (endpoint: median survival time, dose: 100.0 mg/kg/injection, schedule: Q01DX011 (ip), vehicle: saline with Tween-80, higher = longer survival): 98 % of control

CN1CCN(c2ccc([N+](=O)[O-])c3no[n+]([O-])c23)CC1
T/C (endpoint: median survival time, dose: 10.0 mg/kg/injection, schedule: Q02DX011 (ip), vehicle: saline with Tween-80, higher = longer survival): 105 % of control
T/C (endpoint: median survival time, dose: 20.0 mg/kg/injection, schedule: Q02DX011 (ip), vehicle: saline with Tween-80, higher = longer survival): 94 % of control

CNC(=S)N/N=C/C(C)=N/NC(=S)NC
T/C (endpoint: median survival time, dose: 0.2 micrograms/kg/injection, schedule: Q01DX011 (ip), vehicle: saline with Tween-80, higher = longer survival): 100 % of control
T/C (endpoint: median survival time, dose: 0.5 micrograms/kg/injection, schedule: Q01DX011 (ip), vehicle: saline with Tween-80, higher = longer survival): 102 % of control
T/C (endpoint: median survival time, dose: 1.0 micrograms/kg/injection, schedule: Q01DX011 (ip), vehicle: saline with Tween-80, higher = longer survival): 102 % of control

CC1OC(=O)C(C2OC2C)=CC1O (centres undefined)
T/C (endpoint: mean tumor weight, dose: 6.25 mg/kg/injection, schedule: Q01DX011 (ip), vehicle: saline, higher = larger tumour): 93 % of control
T/C (endpoint: mean tumor weight, dose: 12.5 mg/kg/injection, schedule: Q01DX011 (ip), vehicle: saline, higher = larger tumour): 99 % of control
T/C (endpoint: mean tumor weight, dose: 25.0 mg/kg/injection, schedule: Q01DX011 (ip), vehicle: saline, higher = larger tumour): 78 % of control
T/C [3]: 102 % of control
T/C (endpoint: median survival time, dose: 12.5 mg/kg/injection, schedule: Q01DX011 (ip), vehicle: saline, higher = longer survival): 109 % of control
T/C (endpoint: median survival time, dose: 25.0 mg/kg/injection, schedule: Q01DX011 (ip), vehicle: saline, higher = longer survival): 107 % of control

COc1ccc([I+]c2ccc(OC)cc2)cc1
T/C (endpoint: median survival time, dose: 0.78 mg/kg/injection, schedule: Q01DX011 (ip), vehicle: saline, higher = longer survival): 110 % of control
T/C (endpoint: median survival time, dose: 1.56 mg/kg/injection, schedule: Q01DX011 (ip), vehicle: saline, higher = longer survival): 106 % of control
T/C (endpoint: median survival time, dose: 3.12 mg/kg/injection, schedule: Q01DX011 (ip), vehicle: saline, higher = longer survival): 98 % of control

CCCCCCCCCCCC[N+](C)(C)C (tested in a mixture with another compound)
T/C [3]: 110 % of control
